Data: article PMC10245560 (bioRxiv, 2023)

How the values were obtained:
B. subtilis 168 = assay: Bacterial cell wall integrity; type: cell-based; conditions: phase-contrast microscopy
B. subtilis = conditions: ref Fage et al., 2020; cited from earlier work
[1] = HS-AFM of fibrils on supported lipid bilayers; type: physicochemical; conditions: supported lipid bilayer with lipid II, errors are standard deviation, SD

Row | height of fibrils above the membrane surface [1] [nm] | Compound | cell-shape deformations / blebbing phenotype (B. subtilis 168) | activity against B. subtilis (B. subtilis)
1 | – | CN[C@H](CC(C)C)C(=O)N[C@H]1C(=O)N[C@@H](CC(N)=O)C(=O)N[C@H]2C(=O)N[C@H]3C(=O)N[C@H](C(=O)N[C@H](C(=O)O)c4cc(O)cc(O)c4-c4cc3ccc4O)[C@H](O)c3ccc(c(Cl)c3)Oc3cc2cc(c3O[C@@H]2O[C@H](CO)[C@@H](O)[C@H](O)[C@H]2O[C@H]2C[C@](C)(N)[C@H](O)[C@H](C)O2)Oc2ccc(cc2Cl)[C@H]1O [vancomycin] | similarly observed | –
2 | – | C=C(CC/C=C\C=C\C[C@H](C)CC(=O)C[C@@H](O)CNC(=O)[C@H](C)[C@@H](C)OC(N)=O)C[C@@H](C)C/C(C)=C/C(=O)O [kalimantacin] | – | not active
3 | – | hypeptin | similarly observed | –
4 | 0.8 ± 0.1 | teixobactin | similarly observed | –
